Laboratory results: patent US20200129504A1, “COMPOSITIONS OF PLINABULIN AND USE THEREOF” (BeyondSpring Pharmaceuticals, Inc., priority 2017, published 2020)

How the values were obtained:
[1] = Clinical study of docetaxel plus plinabulin versus docetaxel alone: dexamethasone-related treatment emergent adverse events; format: in vivo, patients
Procedure: Patients received either docetaxel plus plinabulin (DN) or docetaxel alone (75 mg/m^2) (D) treatment. Two dosing cohorts were investigated: • 1) 30 mg/m^2 dosing cohort: patients were randomized (1:1) to receive either docetaxel plus plinabulin at 30 mg/m^2 (DN 30 mg/m^2 arm) or docetaxel alone (D arm), • 2) 20 mg/m^2 dosing cohort: patients were randomized (2:1) to receive either docetaxel plus plinabulin at 20 mg/m^2 (DN 20 mg/m^2 arm) or docetaxel (D arm) alone.
Patients received therapy on Day 1 and Day 8 in 3-week cycles. Therapy on Day 1 consisted of 75 mg/m^2 docetaxel administered via intravenous infusion (IV) over 1 hour, followed 2 hours later (from the time the docetaxel infusion began) by placebo (Arm D) or 30 mg/m^2 or 20 mg/m^2 plinabulin (Arm DN) administered via intravenous infusion (IV) over 30 minutes. […]
Treatment Phase: Safety assessments (including a complete physical examination) were performed prior to study drug infusion. […] Additionally, the following were evaluated: CBC with differential/platelets and clinical chemistry were performed up to 72 hours prior to Day 1 of each cycle; an additional assessment occurred in Cycle 1/Day 15; Vital signs (heart rate, respiratory rate, blood pressure and temperature) were taken on the days of infusion immediately before and after each study drug infusion and at 30 and 60 minutes following last infusion on the first cycle. […]

PDE3 = target: T1, PDE3 (Homo sapiens, UniProt Q14432); experiment: Phosphodiesterase bioassay screening, PDE3 assay; format: biochemical; conditions: Plinabulin concentration 10 μm; n 2; source human platelets; [3H]cAMP+cAMP substrate; 25° C.
T1 construct: The source for the PDE3 and PDE5 assays were human platelets; from tissue; host or cells: human platelets
T1 sequence (Q14432 whole entry): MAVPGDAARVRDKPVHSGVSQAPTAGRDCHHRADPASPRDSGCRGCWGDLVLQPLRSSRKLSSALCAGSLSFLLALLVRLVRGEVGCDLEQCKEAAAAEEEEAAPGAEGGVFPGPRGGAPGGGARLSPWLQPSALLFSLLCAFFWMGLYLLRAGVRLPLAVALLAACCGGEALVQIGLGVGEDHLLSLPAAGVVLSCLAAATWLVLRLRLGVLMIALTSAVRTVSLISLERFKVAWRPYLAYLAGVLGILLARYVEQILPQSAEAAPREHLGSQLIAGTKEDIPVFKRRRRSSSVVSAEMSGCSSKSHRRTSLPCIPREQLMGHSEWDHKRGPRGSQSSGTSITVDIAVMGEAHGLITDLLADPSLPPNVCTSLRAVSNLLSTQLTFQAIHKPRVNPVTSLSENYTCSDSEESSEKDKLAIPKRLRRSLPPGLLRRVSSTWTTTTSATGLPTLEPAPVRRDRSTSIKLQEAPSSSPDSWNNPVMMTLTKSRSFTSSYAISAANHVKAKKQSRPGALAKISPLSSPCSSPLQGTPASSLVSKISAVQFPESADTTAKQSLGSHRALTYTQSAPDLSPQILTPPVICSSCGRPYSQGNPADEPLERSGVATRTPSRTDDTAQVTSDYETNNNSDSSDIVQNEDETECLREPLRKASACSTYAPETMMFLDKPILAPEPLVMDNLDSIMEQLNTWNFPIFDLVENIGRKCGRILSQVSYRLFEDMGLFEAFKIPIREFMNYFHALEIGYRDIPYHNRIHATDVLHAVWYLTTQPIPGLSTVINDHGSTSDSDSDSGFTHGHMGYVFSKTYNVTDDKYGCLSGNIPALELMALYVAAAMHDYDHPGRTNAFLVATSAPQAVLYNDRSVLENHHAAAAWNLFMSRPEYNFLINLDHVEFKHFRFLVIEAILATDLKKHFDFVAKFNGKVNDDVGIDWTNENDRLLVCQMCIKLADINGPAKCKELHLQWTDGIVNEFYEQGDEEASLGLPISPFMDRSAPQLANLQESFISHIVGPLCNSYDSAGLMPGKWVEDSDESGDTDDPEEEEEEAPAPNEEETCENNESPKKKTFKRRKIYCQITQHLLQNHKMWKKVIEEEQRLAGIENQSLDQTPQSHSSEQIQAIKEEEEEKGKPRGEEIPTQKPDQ
Procedure: (§1) Plinabulin was tested using Phosphodiesterase assays including PDE3, PDE4, and PDE5 assays. The source for the PDE3 and PDE5 assays were human platelets and for PDE4 assay was human U937 cells. The substrate for all three assays was 1.01 µM [.H]cAMP+cAMP. For all three assays, the pre-incubation time was 15 mins, the incubation time was 20 mins, and the pre-incubation and incubation temperature was 25° C. The quantification method involves quantitation of [^3H]Adenosine, and the significant criteria was set for i 50% of max stimulation or inhibition.

PDE4 = experiment: Phosphodiesterase bioassay screening, PDE4 assay; format: biochemical, human
Procedure: as §1

PDE5 = target: T2, PDE5 (Homo sapiens, UniProt O76074); experiment: Phosphodiesterase bioassay screening, PDE5 assay; format: biochemical; conditions: Plinabulin concentration 10 μm; n 2; source human platelets; [3H]cAMP+cAMP substrate; 25° C.
T2 construct: The source for the PDE3 and PDE5 assays were human platelets; from tissue; host or cells: human platelets
Procedure: as §1

SMILES: CC(C)(C)c1[nH]cnc1/C=c1\[nH]c(=O)/c(=C/c2ccccc2)[nH]c1=O [Plinabulin, (3Z,6Z)-3-Benzylidene-6-{[5-(2-methyl-2-propanyl)-1H-imidazol-4-yl]methylene}-2,5-piperazinedione]
- steroid related adverse events versus patients receiving no plinabulin ([1]; 30 mg/m^2 of plinabulin, p=0.026): statistically more significant
- steroid (dexamethasone)-related adverse events, effect of plinabulin dose (FIG. 1) ([1]; plinabulin 20 and 30 mg/m^2 added to docetaxel): dose-dependent increase
- % of inhibition (PDE3): 7%
- % of inhibition (PDE4; Plinabulin concentration 10 μm, n 2, source human U937 cells, [3H]cAMP+cAMP substrate, 25° C.): 77%
- inhibition activity against PDE4 compared with PDE3 and PDE5 (PDE4; from Table 1, 10 μm): better inhibition activity against PDE4
- % of inhibition (PDE5): 25%
